Results published in patent US20140275090A1, “BILE ACID RECYCLING INHIBITORS FOR TREATMENT OF PRIMARY SCLEROSING CHOLANGITIS AND INFLAMMATORY BOWEL DISEASE” (Lumena Pharmaceuticals, Inc., priority 2013, published 2014).
“And” between values parts separate entries of the source, which are not always exact repeats. Equal values may be shown once.

Tests used:
[1] = test system: fecal bile acids; experiment: Fecal bile acid excretion in ZDF rats after oral 264W94; type: in vivo, ZDF rat; settings: 0.001-10 mg/kg oral gavage twice a day, 2 weeks
Description: (§1) Male Zucker diabetic fatty rats (ZDF/GmiCrl-fa/fa) were purchased from Charles River (Raleigh, N.C.) and housed under controlled conditions (12:12 light-dark cycle, 24° C. and 50% relative humidity) with free access to rodent food (Purina 5008, Harlan Teklad, Indianapolis, Ind.). All rats arrived at seven weeks of age (±3 days). After a one-week acclimation period, rats were anesthetized with isoflurane (Abbott Laboratories, IL) and tail-vein blood samples were collected at 9 am without fasting. Blood glucose levels were measured using a glucometer (Bayer, Leverkusen, Germany). In order to ensure balanced treatment groups, ZDF rats were assigned to six treatment groups based upon baseline glucose: vehicle (0.5% HPMC, 0.1% Tween80) and five doses of 264W94 (0.001, 0.01, 0.1, 1, 10 mg/kg). All treatments were given via oral gavage twice a day and animals were followed for two weeks with blood samples collected from tail vein at the end of each week at 9 am without fasting. Fecal samples were collected for 24 hours during the second week of treatment.
(§2) Non-esterified fatty acids (NEFA), bile acids, and bile acids in fecal extraction were measured using the Olympus AU640 clinical chemistry analyzer (Beckman Coulter, Irving, Tex.).

[2] = test system: fecal excretion of [14C]taurocholic acid (TCA); experiment: Fecal excretion of [14C]taurocholic acid in Syrian hamster after LUM002; type: in vivo; settings: nonfasted Golden Syrian hamsters, oral gavage, 24 h feces
Description: To study the effect of LUM002 on fecal excretion of [^14C]taurocholic acid (TCA) in the Syrian hamster in vivo, [^14C]TCA was administered intraperitoneally 1 hour before dosing the test compound. Each animal was dosed with […] [^14C]TCA. LUM002 was dosed by oral gavage (5 mL/kg per administration) in either 5% (v/v) Solutol with 0.5% hydroxyethylcellulose (HEC) or 0.5% HEC alone. The first half of dose of test compound/vehicle was given 1 hour after [^14C]TCA injection, followed by the second half of dose 7 hours after the first dose of test compound/vehicle. Feces were collected for 24 hours after [^14C]TCA administration and aliquots from feces were combusted for determination of [^14C] excretion.
The ED200 (dose which doubles the fecal excretion of [^14C] label vs. control from dose response curve, including 95% Confidence interval) was calculated from a dose response curve.

[3] = Pharmacokinetics of [14C]LUM002 after single PO or IV administration to rats; type: in vivo, Sprague Dawley Rat
Description: To each rat either a single oral (PO; 20 mg/kg free acid) or a single intravenous (IV; 2 mg/kg free acid) dose of [^14C]LUM002 was administered. For PO and IV administration, the test substance was prepared with the adequate amount of water to reach a solution with a concentration of approximately 4 mg/g (PO) and 1 mg/g (IV). Oral administration was a gavage using a stomach tube and IV administration was a bolus injection into the tail vein. Exact doses administered to animals were calculated according to syringe weights.
The doses of radioactivity actually administered were determined by using standards prior to and after treatment of the animals. Blood—Animals were anaesthetized (Isoflurane) for blood sampling (3 animals/time point) and then euthanized by […]. Blood samples (maximal volume from each animal approx. 8 mL) were withdrawn from the abdominal aorta into containers containing a small amount of lithium heparin. and samples were centrifuged for 2 minutes at 1540 g. Aliquots (100 μL) of blood were used for hematocrit determination. Animals for the control groups (male and/or female) were used as predose animals for sampling of untreated biological samples (blood and plasma or liver, myocardium, kidneys only from male control animals). Plasma—To obtain plasma, blood samples were centrifuged for 10 minutes and stored cooled before final division.
Bioanalytical analysis −50 μL of plasma samples were placed into an 1.5 mL reaction tube. 5 μL methanol was added to each sample. For protein precipitation, 100 μL of the internal standard working solution (100 ng/mL of benzyl-13C6-LUM002 in acetonitrile) and 50 μL acetonitrile were added. In case of double blank samples, pure acetonitrile was added. Tubes were sealed and mixed thoroughly for 10 seconds. The tubes were centrifuged for 5 minutes at ≧3000 g. 50 μL of the clear supernatant was transferred into an autoinjector vial and were diluted with 50 μL deionized water. Analysis of samples was performed by using LC-MS/MS (injection volume 50-75 μL) with a lower limit of quantification in the assay of 1 ng/mL for LUM002.

[4] = Pharmacokinetics of LUM002 single 100 mg oral solution in healthy male subjects; type: in vivo, human
Description: Healthy male subjects, from 18 to 45 years of age, were given a single oral solution dose (100 mg in 100 mL) of LUM002 under fasting conditions. Blood samples for the determination of LUM002 plasma concentration were collected predose and 0.5, 1, 2, 3, 4, 5, 6, 8, 10, 12, 16, 24, and 48 hours after treatment administration. Plasma was obtained by centrifugation and […] processed for protein precipitation, centrifuged again to remove the precipitate and the supernatant prepared for LC-MS/MS analysis. LUM002 plasma concentrations were determined using a validated liquid chromatography tandem mass spectrometry (LC-MS/MS) assay with a lower limit of quantification (LLOQ) of 0.1 ng/mL. LUM002 plasma concentrations were used to determine the following pharmacokinetic parameters using standard noncompartmental techniques: Cmax, Tmax, AUCslast, and, if applicable due to the low-absorbable characteristics of LUM002, also AUC, AUC0-24 and t1/2z.

[5] = test system: plasma bile acids; experiment: Plasma bile acid concentrations in ZDF rats, oral gavage twice a day for 2 weeks; type: in vivo, ZDF rat
Description: as §1, with “All treatments were given via oral gavage twice a day and animals were followed for two weeks with blood samples collected from tail vein at the end of each week at 9 am without fasting. Fecal samples were collected for 24 hours during the second week of treatment.” left out
as §2
Male ZDF rats (n=4) were administered vehicle, SC-435 (1, 10 or 30 mg/kg) or LUM002 (0.3, 1, 3, 10 or 30 mg/kg) by oral gavage twice a day for 2 weeks. Plasma bile acid levels were determined at the end of the second week. […] Data are expressed as mean values ±SEM.

[6] = test system: total serum bile acids; experiment: ZDF rat 3-week study: plasma total serum bile acids; type: in vivo; settings: ZDF rats, twice daily oral gavage, Week 3
Description: (§3) Animals were acclimatized for 5-7 days after arrival.
(§4) Key efficacy, metabolic and liver function parameters were assessed: Total 24 hr fecal and total serum bile acid concentrations; Plasma ALP, ALT, AST, BUN, creatinine; Fasting glucose and insulin concentrations, glucose/insulin ratio, blood percent HbA1c and Oral Glucose Tolerance Test (glucose excursion, insulin, GLP-1); Plasma GLP-1, GLP-2 and FGF21 concentrations.

[7] = test system: plasma ALP, ASAT, ALAT; experiment: ZDF rat 3-week study: liver function (ALP, ASAT, ALAT); type: in vivo; settings: ZDF rats, twice daily oral gavage, Week 3
Description: as §3, §4

[8] = test system: Hemoglobin A1c (HbA1c); experiment: ZDF rat 3-week study: baseline-corrected percent HbA1c; type: in vivo; settings: ZDF rats, twice daily oral gavage
Description: as §3, §4

[9] = test system: GLP-2; experiment: ZDF rat study: GLP-2 in plasma; type: in vivo; settings: non-fasted ZDF rats, 2 weeks treatment, higher doses
Description: as §3, §4

[10] = test system: plasma lipase, plasma amylase; experiment: ZDF rat 3-week study: exocrine pancreas function (plasma lipase, amylase); type: in vivo; settings: ZDF rats; for Plasma Amylase: Week 3; for Plasma Lipase: Week 3, higher doses
Description: as §3, §4

[11] = test system: liver injury after partial bile duct ligation; experiment: Partial bile duct ligation (pBDL) in rats: liver histology and cholangiocyte mitotic figures; type: in vivo, rat; settings: for Total number of cholangiocytes in 50 fields / Total number of mitotic figures in 50 fields: pBDL rat, 10 mg/kg once daily oral gavage
Description: Rats were anesthetized with isoflurane, the common bile duct exposed by midline laparotomy and a short length of PE-10 tubing placed parallel to the bile duct. A ligature of 4-0 silk suture was tied tightly around the duct and tubing after which the tubing was removed resulting in constriction of the duct lumen without complete obstruction SC-435 was administered to the test group by once daily oral gavage (10 mg/kg) starting one day prior to pBDL surgery.
All animals were euthanized on Day 14. The liver was collected from all animals and preserved in 10% formalin. The preserved livers from all animals were processed, embedded in paraffin, sectioned and stained with hematoxylin and eosin (H&E). The resulting slides were evaluated. Microscopic findings, when present, were graded subjectively on a scale of 0 to 4 according to the intensity and extent of change, where 0=finding not present; 1=minimal; 2=mild; 3=moderate and 4=marked. Additionally, quantitation of cholangiocyte (bile duct epithelial cells) mitotic nuclei was accomplished by counting the number of mitotic cells and the total number of cholangiocytes in 50 randomly selected high-powered (40× objective) fields.

With `CCCC[C@]1(CC)CS(=O)(=O)c2cc(OC)c(OC)cc2[C@@H](c2ccccc2)N1` [Compound 264W94] the “elevation of fecal bile acid concentrations vs vehicle treated rats” value [1] was “up to 6.5 fold”.
In the case of `CCCC[C@]1(CC)CS(=O)(=O)c2ccc(N(C)C)cc2[C@@H](c2cccc(NC(=O)N[C@@H]3O[C@H](COS(=O)(=O)[O-])[C@@H](O)[C@H](OCc4ccccc4)[C@H]3O)c2)[C@H]1O.CCO.O.[K+]` [LUM002, potassium((2R,3R,4S,5R,6R)-4-benzyloxy-6-{3-[3-((3S,4R,5R)-3-butyl-7-dimethylamino-3-ethyl-4-hydroxy-1,1-dioxo-2,3,4,5-tetrahydro-1H-benzo[b]thiepin-5-yl)-phenyl]-ureido}-3,5-dihydroxy-tetrahydro-pyran-2-ylmethyl)sulphate ethanolate, hydrate], the “effect on fecal excretion of bile acids” value [2] was “significantly increased”, the AUCinf ([3]; male rat, IV bolus 2 mg/kg free acid) was 0.9 ng·h/mL and the “plasma exposure, 3 female and 1 male animal out of 72” value ([3]; rat, PO 20 mg/kg, 2 or 4 h after administration) was 1 to 5 ng/mL. The “plasma exposure, all other animals” value ([3]; rat, PO 20 mg/kg, limit of quantitation 1 ng/mL) was less than 1 ng/mL, the dose systemically absorbed ([3]; rats) was “Less than 2%” and the t1/2 ([4]; 100 mg oral solution, fasting, individual subject) was 3.39 h. The dose systemically absorbed ([4]; healthy male subjects, 100 mg) was “Less than 1%”, the “Plasma bile acid levels” value ([5]; ZDF rats, 0.3, 1, 3, 10 or 30 mg/kg twice a day) was “decreased” and the “Plasma Total Serum Bile Acids Concentrations” value [6] was “statistically significant reductions”. For the same compound, the “Plasma Alkaline Phosphatase (ALP)” value [7] was “significant reductions”, the “Plasma Aspartate Aminotransferase (ASAT)” value [7] was “statistically significant reduction” and the “Baseline-corrected Percent Hemoglobin A1c (HbA1c)” value [8] was “significant dose-dependent reductions”. The GLP-2 in plasma [9] was “significant elevations”, the “Plasma Amylase” value [10] was “Neither LUM002 nor SC-435 cause a statistically significant changes” and the “Plasma Lipase” value [10] was “statistically significant reductions”.
For `CCCCC1(CCCC)CS(=O)(=O)c2ccc(N(C)C)cc2[C@@H](c2ccc(OCCCC[N+]34CCN(CC3)CC4)cc2)[C@H]1O.CS(=O)(=O)[O-]` [SC-435, 1-[4-[4-[(4R,5R)-3,3-dibutyl-7-(dimethylamino)-2,3,4,5-tetrahydro-4-hydroxy-1,1-dioxido-1-benzothiepin-5-yl]phenoxy]butyl]-4-aza-1-azoniabicyclo[2.2.2]octane methanesulfonate salt], the “Plasma bile acid levels” value ([5]; ZDF rats, 1, 10 or 30 mg/kg twice a day) was “decreased”, the “Plasma Total Serum Bile Acids Concentrations” value [6] was “statistically significant reductions” and the “Plasma Alkaline Phosphatase (ALP)” value [7] was “significant reductions”. For the same compound, the “Baseline-corrected Percent Hemoglobin A1c (HbA1c)” value [8] was “significant dose-dependent reductions”, the GLP-2 in plasma [9] was “significant elevations” and the “Plasma Amylase” value [10] was “Neither LUM002 nor SC-435 cause a statistically significant changes”. For the same compound, the “Plasma Lipase” value [10] was “statistically significant reductions”, the Hepatocyte necrosis ([11]; pBDL rat livers, Day 14) was “not present” and the “bile duct proliferation, mixed inflammatory cell infiltration, spindle cell proliferation vs untreated rat livers” value ([11]; pBDL rat livers, Day 14) was “reduced incidence and intensity”. For the same compound, the “hepatic necrosis and inflammatory cell infiltration” value ([11]; pBDL rat livers, by 14 days) was “less hepatic necrosis and inflammatory cell infiltration”, the “Total number of cholangiocytes in 50 fields” value ([11]; Day 14, AVG) was 533 and the “Total number of mitotic figures in 50 fields” value ([11]; Day 14, AVG) was 0. The “Total number of mitotic figures in 50 fields” value ([11]; Day 14, individual rats) was 0, the “Total number of cholangiocytes in 50 fields” value ([11]; Day 14, individual rats, methanesulfonate salt, 10 mg/kg) was 662 and 404 and the “mitotic figures in livers” value ([11]; pBDL rats, 14 days post surgery) was “No mitotic figures were observed”. The “morphologic features of liver injury associated cholestasis” value ([11]; partial bile duct ligation, rats) was “appeared to ameliorate or inhibit”.
